In patent US8350007B2, “Crystal structure of human mitoNEET protein” (The Regents of the University of California, priority 2007, dated 2013):

Assays:
serum albumin = serum albumin (Homo sapiens, UniProt P02768); details: after patient ingestion, prior to cellular uptake; cited from earlier work
[1] = Blood glucose levels in diabetic ZDF rats treated with rosiglitazone; type: in vivo, rat; details: after three weeks of rosiglitazone 10 mg/kg by gavage
Procedure: Sixteen male ZDF rats were housed in filter cages, 2 or 3 animals per cage. Weight and blood glucose levels were measured every week. The blood glucose was measured at the fed state (07:30 am) and after 6 hours fast (1:[…]). The Animals were divided into two groups: a control group, and a rosiglitazone-treated group. Animals were treated daily for 3 weeks once a day, 5 times a week, with rosiglitazone, 10 mg/kg by gavage (0.7 ml) for the rosi-treated rats; or 0.7 ml saline for the control rats. After three weeks, liver, muscle and epididymal fat were collected and immediately frozen.
The average glucose blood level after fed of the control group was >240 mg/dl; in the rosiglitazone-treated rats some responded in a medium manner to the treatment; after three weeks of rosiglitazone treatment their glucose blood levels after fed was ˜120-140 mg/dl and some rats responded very well to rosiglitazone treatment and after three weeks their glucose blood levels after fed was ˜80 mg/dl.

serum albumin, sequence (P02768 25-609): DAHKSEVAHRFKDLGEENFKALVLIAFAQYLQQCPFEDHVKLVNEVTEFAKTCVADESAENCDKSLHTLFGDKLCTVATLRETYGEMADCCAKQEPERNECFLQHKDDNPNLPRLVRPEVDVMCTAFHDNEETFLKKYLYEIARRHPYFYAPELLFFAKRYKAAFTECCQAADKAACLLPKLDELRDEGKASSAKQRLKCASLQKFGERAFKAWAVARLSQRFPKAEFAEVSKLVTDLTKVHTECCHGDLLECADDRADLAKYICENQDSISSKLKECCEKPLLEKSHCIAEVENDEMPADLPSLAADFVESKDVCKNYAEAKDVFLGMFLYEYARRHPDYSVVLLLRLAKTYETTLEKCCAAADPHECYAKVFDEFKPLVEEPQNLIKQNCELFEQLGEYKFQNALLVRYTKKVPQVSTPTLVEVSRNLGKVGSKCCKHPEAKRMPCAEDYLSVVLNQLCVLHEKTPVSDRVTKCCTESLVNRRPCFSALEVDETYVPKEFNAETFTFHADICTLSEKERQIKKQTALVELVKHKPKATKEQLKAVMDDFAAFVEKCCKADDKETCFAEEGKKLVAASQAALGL

## CCc1ccc(CCOc2ccc(CC3SC(=O)NC3=O)cc2)nc1 (stereo not drawn) [pioglitazone]
Serum albumin
  binding to serum albumin: largely bound to serum albumin

## CN(CCOc1ccc(CC2SC(=O)NC2=O)cc1)c1ccccn1 (stereo not drawn) [rosiglitazone]
[1]; ZDF rats responding in a medium manner
  glucose blood levels after fed: 120 to 140 mg/dL
[1]; ZDF rats responding very well
  glucose blood levels after fed: ~80 mg/dL
